Test results published in the CheMixHub viscosity set.
± gives the uncertainty stated by the source.

Test: xn = mol fraction of the nth substance listed

CCCCCCCCCCCCCC + CCCOC(C)=O
viscosity (298.15 K, 101.33 kPa, x1 = 0.066): 0.605 ± 0.006 mPa·s | viscosity (298.15 K, 101.33 kPa, x1 = 0.0941): 0.632 ± 0.006 mPa·s | viscosity (298.15 K, 101.33 kPa, x1 = 0.1299): 0.673 ± 0.007 mPa·s | viscosity (298.15 K, 101.33 kPa, x1 = 0.1877): 0.734 ± 0.007 mPa·s | viscosity (298.15 K, 101.33 kPa, x1 = 0.2573): 0.815 ± 0.008 mPa·s | viscosity (298.15 K, 101.33 kPa, x1 = 0.3129): 0.88 ± 0.008 mPa·s | viscosity (298.15 K, 101.33 kPa, x1 = 0.4379): 1.045 ± 0.01 mPa·s | viscosity (298.15 K, 101.33 kPa, x1 = 0.5495): 1.204 ± 0.011 mPa·s | viscosity (298.15 K, 101.33 kPa, x1 = 0.6576): 1.369 ± 0.013 mPa·s | viscosity (298.15 K, 101.33 kPa, x1 = 0.8073): 1.631 ± 0.015 mPa·s | viscosity (298.15 K, 101.33 kPa, x1 = 0.8924): 1.814 ± 0.016 mPa·s

ClC(Cl)=C(Cl)Cl + CC(C)O
viscosity (298.15 K, 101.3 kPa, x1 = 0.0763): 1.855 ± 0.017 mPa·s | viscosity (298.15 K, 101.3 kPa, x1 = 0.6349): 1.025 ± 0.01 mPa·s | viscosity (303.15 K, 101.33 kPa, x1 = 0.1028): 1.473 ± 0.01 mPa·s | viscosity (303.15 K, 101.33 kPa, x1 = 0.2072): 1.251 ± 0.008 mPa·s | viscosity (303.15 K, 101.33 kPa, x1 = 0.307): 1.102 ± 0.007 mPa·s | viscosity (303.15 K, 101.33 kPa, x1 = 0.3926): 1.007 ± 0.007 mPa·s | viscosity (303.15 K, 101.33 kPa, x1 = 0.5027): 0.92 ± 0.006 mPa·s | viscosity (303.15 K, 101.33 kPa, x1 = 0.6105): 0.864 ± 0.006 mPa·s | viscosity (303.15 K, 101.33 kPa, x1 = 0.6982): 0.838 ± 0.006 mPa·s | viscosity (303.15 K, 101.33 kPa, x1 = 0.7882): 0.823 ± 0.006 mPa·s | viscosity (303.15 K, 101.33 kPa, x1 = 0.8976): 0.814 ± 0.006 mPa·s

CCCCCCCC + CCCCCCC
viscosity (293.15 K, 101 kPa, x2 = 0.2): 0.511 ± 0.014 mPa·s | viscosity (293.15 K, 101 kPa, x2 = 0.4): 0.484 ± 0.013 mPa·s | viscosity (293.15 K, 101 kPa, x2 = 0.6): 0.458 ± 0.012 mPa·s | viscosity (293.15 K, 101 kPa, x2 = 0.8): 0.433 ± 0.012 mPa·s | viscosity (293.15 K, 101.33 kPa, x2 = 0.07168): 0.531 ± 0.004 mPa·s | viscosity (293.15 K, 101.33 kPa, x2 = 0.1121): 0.525 ± 0.004 mPa·s | viscosity (293.15 K, 101.33 kPa, x2 = 0.1909): 0.514 ± 0.004 mPa·s | viscosity (293.15 K, 101.33 kPa, x2 = 0.2852): 0.501 ± 0.004 mPa·s | viscosity (293.15 K, 101.33 kPa, x2 = 0.3891): 0.487 ± 0.004 mPa·s | viscosity (293.15 K, 101.33 kPa, x2 = 0.4993): 0.473 ± 0.004 mPa·s | viscosity (293.15 K, 101.33 kPa, x2 = 0.5985): 0.46 ± 0.003 mPa·s | viscosity (293.15 K, 101.33 kPa, x2 = 0.6936): 0.448 ± 0.003 mPa·s | viscosity (293.15 K, 101.33 kPa, x2 = 0.7797): 0.437 ± 0.003 mPa·s | viscosity (293.15 K, 101.33 kPa, x2 = 0.8967): 0.422 ± 0.003 mPa·s | viscosity (293.15 K, 101.33 kPa, x2 = 0.9584): 0.414 ± 0.003 mPa·s | viscosity (298.15 K, 101.33 kPa, x2 = 0.1073): 0.4942 ± 0.0071 mPa·s | viscosity (298.15 K, 101.33 kPa, x2 = 0.2098): 0.4774 ± 0.0069 mPa·s | viscosity (298.15 K, 101.33 kPa, x2 = 0.406): 0.4539 ± 0.0066 mPa·s | viscosity (298.15 K, 101.33 kPa, x2 = 0.5089): 0.4431 ± 0.0065 mPa·s | viscosity (298.15 K, 101.33 kPa, x2 = 0.6081): 0.4285 ± 0.0063 mPa·s | viscosity (298.15 K, 101.33 kPa, x2 = 0.7052): 0.4201 ± 0.0062 mPa·s | viscosity (298.15 K, 101.33 kPa, x2 = 0.807): 0.4103 ± 0.0061 mPa·s | viscosity (298.15 K, 101.33 kPa, x2 = 0.9012): 0.3958 ± 0.0059 mPa·s | viscosity (303.15 K, 101.33 kPa, x2 = 0.1022): 0.469 ± 0.004 mPa·s | viscosity (303.15 K, 101.33 kPa, x2 = 0.199): 0.458 ± 0.003 mPa·s | viscosity (303.15 K, 101.33 kPa, x2 = 0.2324): 0.454 ± 0.003 mPa·s | viscosity (303.15 K, 101.33 kPa, x2 = 0.3088): 0.445 ± 0.003 mPa·s | viscosity (303.15 K, 101.33 kPa, x2 = 0.369): 0.438 ± 0.003 mPa·s | viscosity (303.15 K, 101.33 kPa, x2 = 0.5069): 0.423 ± 0.003 mPa·s | viscosity (303.15 K, 101.33 kPa, x2 = 0.5644): 0.416 ± 0.003 mPa·s | viscosity (303.15 K, 101.33 kPa, x2 = 0.6459): 0.407 ± 0.003 mPa·s | viscosity (303.15 K, 101.33 kPa, x2 = 0.7393): 0.397 ± 0.003 mPa·s | viscosity (303.15 K, 101.33 kPa, x2 = 0.799): 0.391 ± 0.003 mPa·s | viscosity (303.15 K, 101.33 kPa, x2 = 0.9128): 0.379 ± 0.003 mPa·s | viscosity (312.75 K, 100 kPa, x1 = 0.2): 0.3426 ± 0.0044 mPa·s | viscosity (313.15 K, 101 kPa, x2 = 0.2): 0.407 ± 0.011 mPa·s | viscosity (313.15 K, 101 kPa, x2 = 0.4): 0.387 ± 0.01 mPa·s | viscosity (313.15 K, 101 kPa, x2 = 0.6): 0.368 ± 0.01 mPa·s | viscosity (313.15 K, 101 kPa, x2 = 0.8): 0.35 ± 0.009 mPa·s | viscosity (313.15 K, 101.33 kPa, x2 = 0.05003): 0.426 ± 0.003 mPa·s | viscosity (313.15 K, 101.33 kPa, x2 = 0.09664): 0.421 ± 0.003 mPa·s | viscosity (313.15 K, 101.33 kPa, x2 = 0.1716): 0.413 ± 0.003 mPa·s | viscosity (313.15 K, 101.33 kPa, x2 = 0.212): 0.409 ± 0.003 mPa·s | viscosity (313.15 K, 101.33 kPa, x2 = 0.2687): 0.404 ± 0.003 mPa·s | viscosity (313.15 K, 101.33 kPa, x2 = 0.3937): 0.392 ± 0.003 mPa·s | viscosity (313.15 K, 101.33 kPa, x2 = 0.4963): 0.382 ± 0.003 mPa·s | viscosity (313.15 K, 101.33 kPa, x2 = 0.596): 0.372 ± 0.003 mPa·s | viscosity (313.15 K, 101.33 kPa, x2 = 0.6942): 0.363 ± 0.003 mPa·s | viscosity (313.15 K, 101.33 kPa, x2 = 0.7937): 0.354 ± 0.003 mPa·s | viscosity (313.15 K, 101.33 kPa, x2 = 0.9085): 0.343 ± 0.003 mPa·s | viscosity (313.15 K, 101.33 kPa, x2 = 0.9589): 0.339 ± 0.003 mPa·s

O=[N+]([O-])c1ccccc1 + c1ccccc1
viscosity (298.15 K, 101 kPa, x2 = 0.2096): 1.417 ± 0.018 mPa·s | viscosity (298.15 K, 101 kPa, x2 = 0.4874): 1.017 ± 0.013 mPa·s | viscosity (298.15 K, 101 kPa, x2 = 0.8636): 0.681 ± 0.009 mPa·s | viscosity (303.15 K, 101 kPa, x1 = 0.0887): 0.6013 ± 0.0047 mPa·s | viscosity (303.15 K, 101 kPa, x1 = 0.1796): 0.654 ± 0.005 mPa·s | viscosity (303.15 K, 101 kPa, x1 = 0.2737): 0.7103 ± 0.0054 mPa·s | viscosity (303.15 K, 101 kPa, x1 = 0.3694): 0.7841 ± 0.0059 mPa·s | viscosity (303.15 K, 101 kPa, x1 = 0.4673): 0.865 ± 0.0065 mPa·s | viscosity (303.15 K, 101 kPa, x1 = 0.5682): 0.9589 ± 0.0071 mPa·s | viscosity (303.15 K, 101 kPa, x1 = 0.6723): 1.075 ± 0.0079 mPa·s | viscosity (303.15 K, 101 kPa, x1 = 0.7788): 1.218 ± 0.0088 mPa·s | viscosity (303.15 K, 101 kPa, x1 = 0.8874): 1.39 ± 0.01 mPa·s
